# Legend:
# [1] = method code SF-AS, from DOI: 10.1021/jf00107a040
# [2] = method code SF-GLC, from DOI: 10.1021/jf00107a040
# [3] = method code SF-RC, from DOI: 10.1021/jf00107a040
SMILES,logP [1],also measured
Cc1cc(N)ccc1Br,2.53,
CN(C)C(=O)Nc1ccc(F)cc1,1.13,
COc1ccc(NC(N)=O)cc1Cl,1.37,
NC(=O)Nc1ccccc1F,,logP [2]: 0.88
COc1ccc(NC(=O)N(C)C)cc1Cl,1.64,
Cc1cccc(NC(N)=O)c1,1.29,
CNC(=O)Nc1ccc(OC)c(Cl)c1,1.76,
NC(=O)Nc1cccc(Br)c1,,logP [2]: 2.08
CNC(=O)Nc1ccc(Cl)c(Cl)c1,,logP [2]: 2.94
NC(=O)Nc1cccc(F)c1,,logP [2]: 1.29
CC(C)OC(=O)Nc1ccccc1,2.6,
NC(=O)Nc1ccc(F)cc1,,logP [2]: 1.04
COc1ccc(NC(=O)N(C)C)cc1,0.83,
CNC(=O)ON=CC(C)(C)S(C)(=O)=O,,logP [3]: -0.57
COC(=O)Nc1ccc(Cl)c(Cl)c1,,logP [2]: 3.09
NC(=O)Nc1cccc(Cl)c1,,logP [2]: 1.82
Cc1cc(NC(=O)N(C)C)cc(C)c1Br,2.92,
NC(=O)Nc1ccc(Br)cc1,,logP [2]: 1.98
COc1ccc(N)cc1Cl,,logP [2]: 1.85

SMILES,logP [1],also measured
O=[N+]([O-])c1ccc(Br)cc1,2.6,
COc1ccc(NC(C)=O)cc1Cl,1.82,
Cc1cc(NC(N)=O)ccc1F,1.59,
NC(=O)Nc1ccccc1Cl,,logP [2]: 1.27
CN(C)C(=O)Nc1cccc(Cl)c1,2.01,
CC(=O)Nc1ccc(Br)cc1,2.14,
CNC(=O)Nc1ccc(C)c(Cl)c1,2.61,
COc1cccc(NC(=O)N(C)C)c1,1.73,
NC(=O)Nc1cccc(C(F)(F)F)c1,,logP [2]: 2.31
Cc1ccc(NC(=O)N(C)C)cc1,1.33,
NC(=O)Nc1ccc(Cl)c(Cl)c1,,logP [2]: 2.64
Cc1cc(C)cc(NC(=O)N(C)C)c1,1.9,
CN(C)C(=O)Nc1cccc(F)c1,1.37,
CN(C)C(=O)Nc1cccc(C(F)(F)F)c1,2.42,
Cc1cc(NC(N)=O)ccc1Br,2.49,
CON(C)C(=O)Nc1ccc(Br)c(Cl)c1,3.09,
Cc1ccc(NC(=O)N(C)C)cc1Cl,2.41,
CC(=O)Nc1cccc(C(F)(F)F)c1,2.2,

# The next lines start with results.
logP [1],SMILES,also measured
1.46,CC(=O)Nc1cccc(F)c1,
2.02,CC(=O)Nc1cccc(Cl)c1,
2.26,CCOC(=O)Nc1ccccc1,
2.04,CC(=O)Nc1cccc(Br)c1,
2.8,NC(=O)Nc1ccc(Oc2ccccc2)cc1,
3.3,CCCCOC(=O)Nc1ccccc1,
2.8,CCCOC(=O)Nc1ccccc1,
2.18,CNC(=O)Nc1cccc(Cl)c1,
2.77,O=C(Nc1ccccc1)NC1CCCCC1,
2.65,O=C(Nc1ccccc1)NC1CCCC1,
1.17,CNC(=O)Nc1ccccc1,
1.65,O=C(Nc1ccccc1)NC1CC1,
3.8,CCCCCOC(=O)Nc1ccccc1,
2.95,O=C(Nc1ccccc1)NC1CCCCCC1,
1.52,CC(=O)Nc1cccc(C)c1,
